Measured values as given in US8128802B2, “Analysis apparatus and analysis method for glycosylated hemoglobin” (OJI Paper Co., Ltd, priority 2005, dated 2012).

Tests used:
Assay type in all cases: biochemical
[1] = system: fructosyl peptide oxidase; test: Substrate specificity, pH profile and stability of fructosyl peptide oxidase-immobilized column (Example 1); settings: for Relative activity (%) pH 6.0: buffer pH 6.0; for Relative activity (%) pH 6.0 / Relative activity (%) pH 7.0 / Relative activity (%) pH 8.0: normalized to 100 for the response to fructosyl valine at each pH, 30° C.; for Relative activity (%) pH 7.0: buffer pH 7.0; for Relative activity (%) pH 8.0: buffer pH 8.0
Experimental: Firebrick powder (150 mg, 30 to 60 meshes) was thoroughly dried, immersed in a 10% solution of γ-aminopropyltriethoxysilane in anhydrous toluene for one hour, then thoroughly washed with anhydrous toluene and dried. The aminosilane-modified support was immersed in a 5% aqueous glutaraldehyde solution for one hour, and then thoroughly washed with distilled water, followed by substitution with 100 mM sodium phosphate buffer (pH 7.0). The buffer was removed as far as possible. A solution ([…]) of fructosyl peptide oxidase (140 units/mL, from Kikkoman Co.) in 100 mM sodium phosphate buffer (pH 7.0) was contacted with the formylated firebrick powder, and then incubated at 0 to 4° C. for one day for the enzyme immobilization. The support immobilized enzyme was packed into a column (internal diameter: 3.5 mm, length: 30 mm) to give the fructosyl peptide oxidase-immobilized column.
The buffer was pumped out from a buffer tank (1) using a pump (2), and 5 μL of a sample was injected using a valve (4). A protease-immobilized column (14), a flow type calorimeter (16), a second immobilized enzyme column (19) and a second electrode for hydrogen peroxide (20) were not placed, and a fructosyl peptide oxidase-immobilized column was placed as a first immobilized enzyme column (17), followed by an electrode for hydrogen peroxide (18) downstream thereof. The injected sample transferred with the flowing buffer, passed through a mixing coil (15) inside an incubator (13), and thus the sample temperature was adjusted and the sample was mixed with the buffer. The sample passed through the fructosyl peptide oxidase-immobilized column (17) and the electrode for hydrogen peroxide (18) to produce hydrogen peroxide from fructosyl valylhistidine in the sample, and then the change of the current was detected.
A composition of the buffer used in this assay apparatus contained 100 mM phosphoric acid, 50 mM potassium chloride and 1 mM sodium azide, and its pH was 7.0.
(§1) The flow rate of the buffer was 1.0 mL/minute, and the temperature in the incubator was 30° C.
Using the assay apparatus described in (3), a 5 μL portion of fructosyl glycine, fructosyl valine or fructosyl valylhistidine was injected, and the characteristics of the fructosyl peptide oxidase-immobilized column was examined.
When pH of the buffer was 6.0, 7.0 or 8.0, the assay results of the activity for the oxidation of fructosyl glycine (FG), fructosyl valine (FV) or fructosyl valylhistidine (FVH) were shown in FIG. 3. For fructosyl glycine the activity was high at pH 8.0, but the activity at pH 6.0 was decreased to about 50% of that at pH 8.0. For fructosyl valine and fructosyl valylhistidine, the activity was high at pH 6.0 and 7.0.
Response values in Table 1 were normalized to 100 for the response to fructosyl valine at each pH.

[2] = system: fructosyl amino acid oxidase; test: Substrate specificity of fructosyl amino acid oxidase-immobilized column (Example 3); settings: buffers pH 8.0; for Relative response value: normalized to 100 for the response to fructosyl glycine, 37° C., dialysis module
Text: The buffer was removed as far as possible. […] The support immobilized enzyme was packed into the column (internal diameter: 3.5 mm, length: 30 mm) to give the fructosyl amino acid oxidase-immobilized column. In the assay apparatus shown in FIG. 2, the flow type calorimeter (16), the protease-immobilized column (14) and the first immobilized enzyme column (17) were not disposed, and the electrode for glucose was placed in the electrode for hydrogen peroxide (18), the fructosyl amino acid oxidase-immobilized column in the second immobilized enzyme column (19), and the electrode for hydrogen peroxide in the electrode for hydrogen peroxide (20). The buffer B was pumped out from the buffer tank (24) using the pump (25), and a 100 μL portion of the sample was injected using the valve (4). […] Since the buffer A was pumped out from the buffer tank (1) by the pump (2), the components with low molecular weight in the sample dialyzed in the dialysis module (27) passed through the electrode for glucose (18), the fructosyl amino acid oxidase-immobilized column (19) and the electrode for hydrogen peroxide (20), and hydrogen peroxide from glucose and fructosyl amino acid in the sample was detected. […] The temperature in the incubator was 37° C. The substrate specificity of fructosyl amino acid oxidase-immobilized column for various fructosyl amino acids, fructosyl peptides, amino acids and sugars was examined using the assay apparatus mentioned in (4) when pH of the buffers was 8.0.

[3] = system: fructosyl peptide oxidase; test: Substrate specificity of fructosyl peptide oxidase-immobilized column (Example 4); settings: buffer A pH 7.0; normalized to 100 for the response to fructosyl valine; 30° C.
Experimental: In the same way as described in Example 1 (1), 150 mg of firebrick powder (30 to 60 meshes) was formylated. The solution (200 μL) of fructosyl peptide oxidase (140 units/mL, from Kikkoman Co.) in 100 mM sodium phosphate buffer (pH 7.0) was contacted with the formylated firebrick powder, and then incubated at 0 to 4° C. for one day for the enzyme immobilization.
In the assay apparatus shown in FIG. 1, the protease-immobilized column (14), the flow type calorimeter (16) and the first immobilized enzyme column (17) were not disposed, and the electrode for glucose was placed in the electrode for hydrogen peroxide (18), the fructosyl peptide oxidase-immobilized column in the second immobilized enzyme column (19), and the electrode for hydrogen peroxide in the electrode for hydrogen peroxide (20). The buffer A was pumped out from the buffer tank (1) by the pump (2), and a 5 μL portion of the sample was injected using the valve (4). The injected sample transferred with the flowing buffer A, passed through the mixing coil (15) in the incubator (13), and thus the sample temperature was adjusted and the sample was mixed with the buffer. And then the sample passed through the downstream electrode for glucose (18), fructosyl peptide oxidase-immobilized column (19) and an electrode for hydrogen peroxide (20), hydrogen peroxide was produced from fructosyl valylhistidine in the sample, and the change of the current was detected.
The composition of the buffer A for the assay apparatus contained 100 mM phosphoric acid, 50 mM potassium chloride and 1 mM sodium azide, and its pH was 7.0.
as §1
On fructosyl peptide oxidase-immobilized column, the substrate specificity for various fructosyl amino acids, fructosyl peptides, amino acids and sugars was examined using the assay apparatus mentioned in (4) when pH of the buffer A was 7.0. In the Table 4, the relative values were normalized to 100 for the response to fructosyl valine.

[4] = system: fructosyl amino acid oxidase; test: Characteristics of fructosyl amino acid oxidase-immobilized column (Example 5); settings: sample concentration 10 mM; buffer pH 8.0, 37° C.
Experimental: FIG. 1 was the flow type assay apparatus with one flow path. The buffer A was pumped out from the buffer tank (1) using the pump (2), and a 5 μL portion of the sample was injected using the valve (4). The fructosyl amino acid oxidase-immobilized column was placed in the first immobilized enzyme column (17) and the electrode for hydrogen peroxide was placed downstream. The second immobilized enzyme column (19), the second electrode for hydrogen peroxide (20), the protease-immobilized column (14) and the flow type calorimeter (16) were not disposed. The injected sample transferred with the flowing buffer, passed through the mixing coil (15) in the incubator (13), and thus the sample temperature was adjusted and the sample was mixed with the buffer. The sample passed through the fructosyl amino acid oxidase-immobilized column (17) and the electrode for hydrogen peroxide (18), hydrogen peroxide was produced from fructosyl valine in the sample, and the change of the current was detected.
The composition of the buffer for this assay apparatus contained 100 mM phosphoric acid, 50 mM potassium chloride and 1 mM sodium azide, and its pH was 8.0.
The flow rate of the buffer was 1.0 mL/minute, and the temperature in the incubator was 37° C.
Using the assay apparatus 1 mentioned in (3), a 5 μL portion of fructosyl glycine was injected, and the characteristics of the fructosyl amino acid oxidase-immobilized column was examined.
When pH in the buffer was 7.0, 7.5, 8.0, 8.5 or 9.0, the activity in the oxidation of fructosyl glycine was measured.

Row | Relative activity (%) pH 6.0 [1] | Relative activity (%) pH 7.0 [1] | Relative activity (%) pH 8.0 [1] | Relative response value [2] | Relative response value [3] | Relative activity (%) [4] | Structure (SMILES) | response of fructosyl amino acid oxidase-immobilized column [2] | pH at which activity was maximized ([1]; buffer pH 6.0, 7.0 or 8.0 tested)
1 | 0% | 0% | 0% | 0.0 | 0.0 | 0.0% | N[C@@H](CCC(=O)O)C(=O)O [Glu] | – | –
2 | 0% | 0% | 0% | 0.0 | 0.0 | 0.0% | CC(C)[C@H](N)C(=O)O [Val] | – | –
3 | 0% | 0% | 0% | 0.0 | 0.0 | 13.0% | N[C@@H](Cc1c[nH]c2ccccc12)C(=O)O [Trp] | – | –
4 | 0% | 0% | 0% | 0.0 | 0.0 | 1.0% | O=C(CO)[C@@H](O)[C@H](O)[C@H](O)CO [Fructose] | – | –
5 | 0% | 0% | 0% | 0.1 | 0.0 | 8.0% | CSCC[C@H](N)C(=O)O [Met] | extremely small responses | –
6 | 0% | 0% | 0% | 0.0 | 0.0 | 0.0% | C[C@H](N)C(=O)O [Ala] | – | –
7 | 0% | 0% | 0% | 0.0 | 0.0 | 0.0% | CC(C)C[C@H](N)C(=O)O [Leu] | – | –
8 | 0% | 0% | 0% | 0.0 | 0.0 | 0.0% | N[C@@H](CO)C(=O)O [Ser] | – | –
9 | 0% | 0% | 0% | 0.0 | 0.0 | 0.0% | OC[C@@H](O)[C@@H](O)[C@H](O)[C@@H](O)CO [D-Sorbitol] | – | –
10 | 0% | 0% | 0% | 0.0 | 0.0 | 0.0% | O=C[C@H](O)[C@@H](O)[C@@H](O)[C@H](O)CO [Galactose] | – | –
11 | 0% | 0% | 0% | 0.0 | 0.0 | 0.0% | N[C@@H](Cc1c[nH]cn1)C(=O)O [His] | – | –
12 | 0% | 0% | 0% | 0.0 | 0.0 | 0.0% | NCC(=O)O [Gly] | – | –
13 | – | – | – | – | – | 507.0% | N[C@@H](CS)C(=O)O [Cys] | – | –
14 | 0% | 0% | 0% | 0.0 | 0.0 | 0.0% | O=C[C@H](O)[C@@H](O)[C@H](O)CO [Xylose] | – | –
15 | 0% | 0% | 0% | 0.0 | 0.0 | 2.0% | O=C(O)[C@@H]1CCCN1 [Pro] | – | –
16 | 0% | 0% | 0% | 0.0 | 0.0 | 41.0% | NCCCC[C@H](N)C(=O)O [Lys] | – | –
17 | 0% | 0% | 0% | 0.0 | 0.0 | 0.0% | NC(=O)C[C@H](N)C(=O)O [Asn] | – | –
18 | 0% | 0% | 0% | 0.0 | 0.0 | 0.0% | N[C@@H](Cc1ccccc1)C(=O)O [Phe] | – | –

Row | Structure (SMILES) | Relative activity (%) pH 6.0 [1] | Relative activity (%) pH 7.0 [1] | Relative activity (%) pH 8.0 [1] | Relative response value [2] | Relative response value [3] | Relative activity (%) [4] | response of fructosyl amino acid oxidase-immobilized column [2] | pH at which activity was maximized ([1]; buffer pH 6.0, 7.0 or 8.0 tested)
19 | CC(C)[C@H](NC1(CO)O[C@H](CO)[C@@H](O)[C@@H]1O)C(=O)N[C@@H](Cc1c[nH]cn1)C(=O)O (stereo partly drawn) [Fructosyl valyl histidine] | 88% | 87% | 66% | 1.3 | 86.8 | – | scarcely responded | 7.0
